Laboratory results: ChEMBL document CHEMBL1201862, “PubChem BioAssay data set” (2004)
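Five compound concentrations were applied to cells in 96-well plates for 48 hours; endpoints were derived by simple linear interpolation of the resulting dose-response curve. At the GI50, growth is halved.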 Active and inactive are the calls of the source. Cut-off read from the data, not from the text of the source: active = GI50 up to about 1.1 µM and inactive = higher.

Columns and labels:
Test in all cases: NCI tumour cell line growth inhibition, 48 h
MOLT-4 = tested on: MOLT-4
SF-268 = tested on: SF-268
DU-145 = tested on: DU-145
T47D = tested on: T47D
EKVX = tested on: EKVX
U-251 = tested on: U-251
SN12C = tested on: SN12C
SK-MEL-28 = tested on: SK-MEL-28
HCC 2998 = tested on: HCC 2998
MDA-MB-435 = tested on: MDA-MB-435
UACC-257 = tested on: UACC-257
OVCAR-8 = tested on: OVCAR-8
HCT-116 = tested on: HCT-116
HCT-15 = tested on: HCT-15
RXF 393 = tested on: RXF 393
786-0 = tested on: 786-0
NCI/ADR-RES = tested on: NCI/ADR-RES
KM12 = tested on: KM12
OVCAR-5 = tested on: OVCAR-5
ACHN = tested on: ACHN

SMILES	GI50 (MOLT-4)	GI50 (SF-268)	GI50 (DU-145)	GI50 (T47D)	GI50 (EKVX)	GI50 (U-251)	GI50 (SN12C)	GI50 (SK-MEL-28)	GI50 (HCC 2998)	GI50 (MDA-MB-435)	GI50 (UACC-257)	GI50 (OVCAR-8)	GI50 (HCT-116)	GI50 (HCT-15) [µM]	GI50 (RXF 393)	GI50 (786-0)	GI50 (NCI/ADR-RES)	GI50 (KM12)	GI50 (OVCAR-5)	GI50 (ACHN)
CC(C)Cn1cnc2c(SCc3ccc(Cl)cc3Cl)nc(N)nc21	7.57 µM (inactive)	34.8 µM (inactive)	> 100 µM (inactive)	13.5 µM (inactive)	14.5 µM (inactive)	27.5 µM (inactive)	47.3 µM (inactive)	57.1 µM (inactive)	13.9 µM (inactive)	32.3 µM (inactive)	15.5 µM (inactive)	27.7 µM (inactive)	23.2 µM (inactive)	16	17.9 µM (inactive)	23.9 µM (inactive)	26.5 µM (inactive)	27.2 µM (inactive)	37.8 µM (inactive)	20.6 µM (inactive)
CNC(=O)OCc1nc(SSC(C)(C)C)n(C)c1COC(=O)NC	1.28 µM (inactive)	6.75 µM (inactive)	19.1 µM (inactive)	2.81 µM (inactive)	8.28 µM (inactive)	12.9 µM (inactive)	4.42 µM (inactive)	1.84 µM (inactive)	8.91 µM (inactive)	4.83 µM (inactive)	2.94 µM (inactive)	2.07 µM (inactive)	1.72 µM (inactive)	1.84	1.45 µM (inactive)	3.06 µM (inactive)	5.52 µM (inactive)	17.3 µM (inactive)	10.4 µM (inactive)	2.7 µM (inactive)
CCCCCC(CO)C(O)(C(F)(F)F)C(F)(F)F (stereo not given)	> 10 µM (inactive)	> 10 µM (inactive)	> 10 µM (inactive)	> 10 µM (inactive)	> 10 µM (inactive)	> 10 µM (inactive)	> 10 µM (inactive)	> 10 µM (inactive)	> 10 µM (inactive)	> 10 µM (inactive)	> 10 µM (inactive)	> 10 µM (inactive)	> 10 µM (inactive)	> 10	> 10 µM (inactive)	> 10 µM (inactive)	> 10 µM (inactive)	> 10 µM (inactive)	> 10 µM (inactive)	> 10 µM (inactive)
CN(CCNCc1cn(C)c2c1ccc1ccccc12)CCNCc1cn(C)c2c1ccc1ccccc12	1.09 µM (active)	1.58 µM (inactive)	1.64 µM (inactive)	1.86 µM (inactive)	1.72 µM (inactive)	0.9 µM (active)	1.56 µM (inactive)	1.43 µM (inactive)	0.301 µM (active)	1.78 µM (inactive)	1.55 µM (inactive)	1.85 µM (inactive)	1.45 µM (inactive)	1.46	0.499 µM (active)	0.881 µM (active)	1.54 µM (inactive)	1.51 µM (inactive)	1.74 µM (inactive)	1.63 µM (inactive)
Cc1cc(S(=O)(=O)Nc2nnc3c4ccccc4cnn23)c(S)cc1Cl	> 100 µM (inactive)	39.9 µM (inactive)	61.9 µM (inactive)	74.1 µM (inactive)	44 µM (inactive)	29.9 µM (inactive)	> 100 µM (inactive)	> 100 µM (inactive)	42.2 µM (inactive)	> 84.3 µM (inactive)	> 100 µM (inactive)	> 100 µM (inactive)	58.2 µM (inactive)	> 58.6	> 100 µM (inactive)	> 74.3 µM (inactive)	> 64.7 µM (inactive)	31.7 µM (inactive)	> 100 µM (inactive)	> 100 µM (inactive)
CC1=NN(C(=O)c2ccncc2)C(=O)C1/N=N/c1ccc2ccccc2c1 (stereo not given)	5.32 µM (inactive)	69 µM (inactive)	> 73.5 µM (inactive)	> 100 µM (inactive)	2.71 µM (inactive)	> 91 µM (inactive)	> 100 µM (inactive)	> 100 µM (inactive)	3.03 µM (inactive)	3.4 µM (inactive)	> 100 µM (inactive)	> 100 µM (inactive)	32.7 µM (inactive)	7.41	> 100 µM (inactive)	> 100 µM (inactive)	13.7 µM (inactive)	17.1 µM (inactive)	> 60.7 µM (inactive)	> 100 µM (inactive)
COc1ccc(-c2cc3c(c4cc(OC)ccc24)C(=O)OC3=O)cc1	> 100 µM (inactive)	> 100 µM (inactive)	> 100 µM (inactive)	> 100 µM (inactive)	> 100 µM (inactive)	> 100 µM (inactive)	> 100 µM (inactive)	> 100 µM (inactive)	> 100 µM (inactive)	68.4 µM (inactive)	> 100 µM (inactive)	> 100 µM (inactive)	> 100 µM (inactive)	> 100	> 100 µM (inactive)	> 100 µM (inactive)	> 100 µM (inactive)	> 100 µM (inactive)	> 100 µM (inactive)	> 100 µM (inactive)
